Data published in publication PMC9065348 (Frontiers in Pharmacology, 2022).
Read-outs that look alike come from different tables or passages of the source.

Experiments:
[1] = Pharmacokinetics of LOS and EXP3174 in the hypertension rat model (LC-MS); type: in vivo, Wistar rats; details: hypertensive rats (L-NAME); for AUC(0-inf) / AUC(0-t) / Cmax / MRT / Tmax / half-life: Wistar, rat, plasma, po, 10 mg/kg/day
Protocol: All samples were centrifuged at 3,000 rpm for 10 min, and the upper plasma was collected for Liquid Chromatography Mass Spectrometry (LC-MS) analysis. The LOS and EXP3174 in rat serum were quantitatively determined by a validated LC-MS method. The LC-MS system contained a Q/Exactive Quadrupole/Electrostatic Field Track Well High Resolution Mass Spectrometer (Thermo Fisher Scientific, Waltham, MA, United States) and a Dionex Ultimate 3,000 High-pressure liquid chromatography (Dionex, Subsidiary, CA, United States) system equipped with an electro-spray ionization source. […] The mobile phase included 0.1% formic acid aqueous solution (C) and acetonitrile (D) at a flow rate of 0.3 ml/min. The proportion of phase B in the mobile phase was adjusted from 40 to 5% at 0-2 min, 5% at 2-4 min, 40% at 4-5 min. The parameters of mass spectrometry for each analyte were shown in Supplementary Figure S1 . The collected data were analyzed through Xcalibur 4.1 software. The serum drug concentration data in each sample were obtained by calculation. The pharmacokinetic parameters corresponding to each rat were calculated using the “non-compartmental model” of the “PK solution 2.0TM (Summit Research Services, United States)” pharmacokinetic software. The half-life (t 1/2 ), peak drug concentration (C max), peak time (T max), the area under the plasma concentration-time curve (AUC) from time zero to the time of the last measurable plasma concentration (AUC 0-t ), AUC from time zero to infinity (AUC 0-∞ ), mean residence time (MRT), clearance (CL), apparent volume of distribution (V d ), and relative bioavailability (Frel) were calculated.

[2] = Pharmacokinetics of LOS and EXP3174 in non-hypertensive Wistar rats (LC-MS); type: in vivo; details: rat, serum, po; Wistar rats without L-NAME; LOS 10 mg/kg/d ig alone (BLANK + LOS group)
Protocol: All groups were treated for 2 weeks and the blood collection time and methods of serum management were the same as those mentioned above. The LOS and EXP3174 in rat serum were quantitatively determined by a validated LC-MS method. The LC-MS system contained a Q/Exactive Quadrupole/Electrostatic Field Track Well High Resolution Mass Spectrometer (Thermo Fisher Scientific, Waltham, MA, United States) and a Dionex Ultimate 3,000 High-pressure liquid chromatography (Dionex, Subsidiary, CA, United States) system equipped with an electro-spray ionization source. […] The mobile phase included 0.1% formic acid aqueous solution (C) and acetonitrile (D) at a flow rate of 0.3 ml/min. The proportion of phase B in the mobile phase was adjusted from 40 to 5% at 0–2 min, 5% at 2–4 min, 40% at 4–5 min. The parameters of mass spectrometry for each analyte were shown in Supplementary Figure S1 . The collected data were analyzed through Xcalibur 4.1 software. The serum drug concentration data in each sample were obtained by calculation. The pharmacokinetic parameters corresponding to each rat were calculated using the “non-compartmental model” of the “PK solution 2.0TM (Summit Research Services, United States)” pharmacokinetic software. The half-life (t 1/2 ), peak drug concentration (C max), peak time (T max), the area under the plasma concentration-time curve (AUC) from time zero to the time of the last measurable plasma concentration (AUC 0-t ), AUC from time zero to infinity (AUC 0-∞ ), mean residence time (MRT), clearance (CL), apparent volume of distribution (V d ), and relative bioavailability (Frel) were calculated.

[3] = design: method as in Sica et al., 2005; Burnier and Wuerzner, 2011; details: ref Sica et al., 2005; Burnier and Wuerzner, 2011; cited from earlier work
[4] = tested on: CYP3A4; design: method as in Li et al. (2012); details: Rat hepatic microsomes; ref Li et al. (2012); cited from earlier work
[5] = tested on: CYP3A4; details: Sprague-Dawley rats; ref Qin et al. (2013); cited from earlier work
[6] = tested on: P-gp; details: Sprague-Dawley rats; ref Qin et al. (2013); cited from earlier work
[7] = biological target: CYP3A4 (Homo sapiens, UniProt P08684); design: method as in Wan et al. (2010); details: HepG2; ref Wan et al. (2010); cited from earlier work
Sequence of CYP3A4 (Homo sapiens, UniProt P08684) (P08684 whole entry): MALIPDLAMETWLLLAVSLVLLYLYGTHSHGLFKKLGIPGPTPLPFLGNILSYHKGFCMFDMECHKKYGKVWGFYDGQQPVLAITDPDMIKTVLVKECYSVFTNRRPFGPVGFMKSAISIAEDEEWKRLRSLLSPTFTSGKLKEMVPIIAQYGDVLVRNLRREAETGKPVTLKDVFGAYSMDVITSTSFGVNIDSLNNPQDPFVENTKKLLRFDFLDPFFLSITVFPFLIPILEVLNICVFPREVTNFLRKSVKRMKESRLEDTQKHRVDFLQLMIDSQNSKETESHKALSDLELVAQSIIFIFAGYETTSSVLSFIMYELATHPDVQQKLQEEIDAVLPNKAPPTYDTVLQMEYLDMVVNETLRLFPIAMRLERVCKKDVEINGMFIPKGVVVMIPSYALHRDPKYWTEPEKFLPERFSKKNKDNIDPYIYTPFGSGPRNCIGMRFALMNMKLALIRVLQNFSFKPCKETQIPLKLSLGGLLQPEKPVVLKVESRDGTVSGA

[8] = tested on: P-gp; design: method as in Wan et al. (2010); details: HepG2; ref Wan et al. (2010); cited from earlier work
[9] = LOS 10 mg/kg/d ig + SMI 2 ml/kg/d tail vein (SMI-L+LOS group)
[10] = LOS 10 mg/kg/d ig + SMI 4 ml/kg/d tail vein (SMI-M+LOS group)
[11] = LOS 10 mg/kg/d ig + SMI 6 ml/kg/d tail vein (SMI-H+LOS group)
[12] = LOS 10 mg/kg/d ig alone (LOS group)

`CCCCc1nc(Cl)c(C(=O)O)n1Cc1ccc(-c2ccccc2-c2nn[nH]n2)cc1` [EXP3174, losartan carboxylic acid] showed an AUC(0-inf) [1, 9] of 1280 ng·h/mL, an AUC(0-t) [1, 9] of 1180 ng·h/mL and a Cmax [1, 9] of 133 ± 42.8 ng/mL. For the same molecule, the MRT [1, 9] was 9.5 ± 1.8 h, the Tmax [1, 9] was 4.8 ± 1.1 h and the half-life [1, 9] was 6.67 ± 1.34 h. The AUC(0-inf) [1, 10] was 1500 ng·h/mL, the AUC(0-t) [1, 10] was 1380 ng·h/mL and the Cmax [1, 10] was 123 ± 44.6 ng/mL. It also gave an MRT [1, 10] of 11.4 ± 1.62 h, a Tmax [1, 10] of 5.33 ± 1.03 h and a half-life [1, 10] of 6.59 ± 1.44 h. It also gave an AUC(0-inf) [1, 11] of 1380 ng·h/mL, a Cmax [1, 11] of 81.2 ± 8.14 ng/mL and an MRT [1, 11] of 13.3 ± 2.66 h. For the same molecule, the Tmax [1, 11] was 6 ± 1.26 h, the half-life [1, 11] was 7.31 ± 1.62 h and the AUC(0-inf) [1, 12] was 1300 ng·h/mL. The AUC(0-t) [1, 12] was 1160 ng·h/mL, the Cmax [1, 12] was 119 ± 36.4 ng/mL and the MRT [1, 12] was 11.2 ± 2.34 h. The Tmax [1, 12] was 4.33 ± 0.82 h, the half-life [1, 12] was 6.76 ± 1.45 h and the CL [1, 9] was 23,408.16 ± 11,602.26 ml/h/kg. For the same molecule, the Vd [1, 9] was 226,676.52 ± 129,635.61 ml/kg, the CL [1, 10] was 17,618.36 ± 4346.02 ml/h/kg and the Vd [1, 10] was 159,469.35 ± 65,037.84 ml/kg. For the same molecule, the CL [1, 11] was 18,577.68 ± 3,249.85 ml/h/kg, the Vd [1, 11] was 188,473.60 ± 36,260.16 ml/kg and the CL [1, 12] was 19,842.49 ± 3,602.55 ml/h/kg. The Vd [1, 12] was 175,713.60 ± 57,295.84 ml/kg, the AUC(0-inf) [2] was 1170 ng·h/mL and the AUC(0-t) [2] was 1020 ng·h/mL. For the same molecule, the Cmax [2] was 115 ± 12.1 ng/mL, the MRT [2] was 9.77 ± 0.26 h and the Tmax [2] was 5.33 ± 1.03 h. For the same molecule, the half-life [2] was 6.5 ± 1.52 h and the “antihypertensive potency relative to losartan” value [3] was 10–40 times.

For `COc1cc2c(c(OC)c1OC)-c1c(cc(OC)c(OC)c1OC)C[C@H](C)[C@H](C)C2` [Schisandrin A], the “Effects on CYP3A4” value [4] is given as “Inhibition”.

For `COc1cc2c(c(OC)c1OC)-c1c(cc(OC)c(OC)c1OC)C[C@](C)(O)[C@@H](C)C2` [schisandrol A], the “Effects on CYP3A4” value [5] is given as “Inhibition”, the “Effects on P-Gp” value [6] is given as “Inhibition” and the “Effects on CYP3A4” value [7] is given as “Inhibition”. The “Effects on P-Gp” value [8] was “Inhibition”.
